Measurements as given in patent US11414431B2, “Substituted pyrazolo[1,5-a]pyrimidines as TYK2 inhibitors” (Nimbus Lakshmi, Inc., priority 2018, dated 2022).

test system: IL-12 induced STAT4 phosphorlyation mediated by TYK2/JAK2; assay: IL-12 Induced pSTAT4 in Human PBMC; type: cell-based; details: 1.7 ng/mL IL-12 for 30 minutes
Outline: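 Thawed human PBMC pre-incubated with compound 1 hr at 37° C (0.1% DMSO final), then stimulated 30 minutes with IL-12 at 1.7 ng/mL final. pSTAT4 and total STAT4 measured in cell lysates with MSD reagents.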

SMILES | IC50 [µM]
CNc1cc(Nc2cccn(C3CCN(CCF)CC3)c2=O)nc2c(C(=O)NC3CC[C@@H]3F)cnn12 (some centres unmarked) [Compound I-236] | < 0.1
CNc1cc(Nc2cccn([C@H]3CC[C@H](OC)CC3)c2=O)nc2c(C(=O)N[C@H]3CC[C@@H]3F)cnn12 [Compound I-225] | < 0.1
CNc1cc(-c2cn([C@H]3CCOC[C@@H]3F)c3ncccc23)nc2c(C(=O)N[C@H]3CC[C@H]3O)cnn12 [Compound I-916] | 0.1 to 0.5
CNc1cc(-c2cn([C@@H]3CCOC[C@H]3F)c3ncccc23)nc2c(C(=O)NC3CC[C@@H]3OC)cnn12 (some centres unmarked) [Compound I-652] | < 0.1
O=C(N[C@H]1CCC1(F)F)c1cnn2c3c(c(-c4cn([C@H]5C[C@H](O)C5)c5ncccc45)nc12)OCCN3 [Compound I-776] | < 0.1
CNc1cc(-c2cn([C@@H]3CCOC3)c3ncccc23)nc2c(C(=O)NC3CC[C@@H]3OC)cnn12 (some centres unmarked) [Compound I-609] | < 0.1
CNc1cc(Nc2cccn(C3CCOCC3)c2=O)nc2c(C(=O)N[C@H]3CC[C@H]3F)cnn12 [Compound I-192] | < 0.1
CNc1cc(-c2cn([C@@H]3CN(C)C[C@H]3F)c3ncccc23)nc2c(C(=O)N[C@H]3CC[C@@H]3OC)cnn12 [Compound I-643] | < 0.1
CNc1cc(Nc2cccn([C@@H]3C[C@H]3F)c2=O)nc2c(C(=O)N[C@@H]3C[C@H]3OC)cnn12 [Compound I-135] | < 0.1
CNc1cc(-c2cn([C@@H]3CCOC[C@H]3F)c3ncccc23)nc2c(C(=O)N[C@H]3CC[C@H]3O)cnn12 [Compound I-918] | < 0.1
CNc1cc(Nc2cccn(C3CCOCC3)c2=O)nc2c(C(=O)N[C@H]3CC[C@]3(C)OC)cnn12 [Compound I-407] | < 0.1
CNc1cc(Nc2cccn([C@H]3CCC[C@H]3O)c2=O)nc2c(C(=O)NC3CC[C@]3(C)OC)cnn12 (some centres unmarked) [Compound I-390] | < 0.1
CNc1cc(Nc2cccn([C@H]3[C@@H]4COC[C@@H]43)c2=O)nc2c(C(=O)N[C@@H]3CC[C@H]3F)cnn12 [Compound I-208] | < 0.1
CNc1ccc(-c2cc(NC)n3ncc(C(=O)N[C@H]4CC[C@H]4F)c3n2)n2ccnc12 [Compound I-784] | < 0.1
CNc1cc(-c2cn([C@@H]3COC[C@@H]3F)c3ncccc23)nc2c(C(=O)N[C@H]3CC[C@@H]3OC)cnn12 [Compound I-622] | < 0.1
CNc1cc(Nc2cccn(C3CCOCC3)c2=O)nc2c(C(=O)NC3CC[C@H]3F)cnn12 (some centres unmarked) [Compound I-191] | < 0.1
CNc1cc(-c2cn([C@H]3COC[C@H]3F)c3ncccc23)nc2c(C(=O)NC3CC[C@H]3O)cnn12 (some centres unmarked) [Compound I-573] | < 0.1
CNc1cc(Nc2cccn([C@H]3CC[C@H]3O)c2=O)nc2c(C(=O)NC3CC[C@@H]3F)cnn12 (some centres unmarked) [Compound I-167] | < 0.1
CNc1cc(Nc2cccn([C@H]3C[C@H](F)C3)c2=O)nc2c(C(=O)N[C@@H]3CCC3(F)F)cnn12 [Compound I-285] | < 0.1
CNc1cc(Nc2cccn(-c3ccccn3)c2=O)nc2c(C(=O)NC3CCC3(F)F)cnn12 (centres unmarked) [Compound I-318] | < 0.1
CNc1cc(Nc2cccn([C@H]3[C@@H]4COC[C@@H]43)c2=O)nc2c(C(=O)N[C@@H]3C[C@H]3OC)cnn12 [Compound I-25, 5-((1-((1R,5S,6r)-3-Oxabicyclo[3.1.0]hexan-6-yl)-2-oxo-1,2-dihydropyridin-3-yl)amino)-N-((1R,2R)-2-methoxycyclopropyl)-7-(methylamino)pyrazolo[1,5-a]pyrimidine-3-carboxamide] | < 0.1
CNc1cc(-c2cn([C@H]3CCOC[C@@H]3F)c3ncccc23)nc2c(C(=O)NC3CC[C@@H]3OC)cnn12 (some centres unmarked) [Compound I-651] | < 0.1
CNc1cc(Nc2cccn(C3CCOCC3)c2=O)nc2c(C(=O)NC3CC[C@@]3(C)OC)cnn12 (some centres unmarked) [Compound I-405] | < 0.1
CNc1cc(-c2cn([C@H]3COC[C@@H]3OC)c3ncccc23)nc2c(C(=O)NC3CC[C@@H]3OC)cnn12 (some centres unmarked) [Compound I-633] | < 0.1
CNc1cc(-c2cn(C(C)C)c3nnccc23)nc2c(C(=O)NC3CC[C@@H]3OC)cnn12 (some centres unmarked) [Compound I-993] | < 0.1
CNc1cc(Nc2cccn([C@H]3CC[C@H]3O)c2=O)nc2c(C(=O)N[C@@H]3CC[C@H]3F)cnn12 [Compound I-169] | < 0.1

SMILES | IC50 [µM]
CNc1cc(-c2cnc3n([C@@H]4CCOC4)cccc2-3)nc2c(C(=O)N[C@@H]3CC[C@H]3OC)cnn12 [Compound I-1005] | 0.1 to 0.5
CNc1cc(-c2cn([C@@H]3CCOC3)c3ncccc23)nc2c(C(=O)N[C@H]3CC[C@@H]3OC)cnn12 [Compound I-610] | < 0.1
CNc1cc(-c2cn([C@@H]3COC[C@H]3O)c3ncccc23)nc2c(C(=O)N[C@@H]3CC[C@H]3OC)cnn12 [Compound I-629] | < 0.1
CNc1cc(-c2cn([C@H]3CCN(C)C3)c3ncccc23)nc2c(C(=O)NC3CC[C@@H]3OC)cnn12 (some centres unmarked) [Compound I-618] | < 0.1
CNc1cc(-c2cn([C@H]3COC[C@@H]3OC)c3ncccc23)nc2c(C(=O)N[C@@H]3CC[C@@H]3F)cnn12 [Compound I-530] | < 0.1
CNc1cc(Nc2cccn([C@@H]3CC[C@@H]3O)c2=O)nc2c(C(=O)N[C@H]3CCC3(F)F)cnn12 [Compound I-290] | < 0.1
CNc1cc(Nc2cccn([C@H]3CC[C@@H](OC)CC3)c2=O)nc2c(C(=O)N[C@@H]3CC[C@@]3(C)OC)cnn12 [Compound I-431] | < 0.1
CNc1cc(-c2cn([C@@H]3CCOC[C@@H]3OC)c3ncccc23)nc2c(C(=O)N[C@H]3CC[C@@H]3F)cnn12 [Compound I-798] | < 0.1
CNc1cc(-c2cn([C@H]3C[C@@H](O)C3)c3ncccc23)nc2c(C(=O)NC3CC[C@@H]3F)cnn12 (some centres unmarked) [Compound I-510] | < 0.1
CNc1cc(Nc2cccn([C@@H]3CCOC[C@@H]3OC)c2=O)nc2c(C(=O)N[C@@H]3CC[C@H]3F)cnn12 [Compound I-217] | < 0.1
CNc1cc(Nc2cccn([C@H]3C[C@@H](OC)C3)c2=O)nc2c(C(=O)N[C@H]3CC[C@@H]3OC)cnn12 [Compound I-253] | < 0.1
CNc1cc(Nc2cccn([C@H]3C[C@H](OC)C3)c2=O)nc2c(C(=O)NC3CC[C@@H]3F)cnn12 (mixture of isomers) [Compound I-176] | < 0.1
CNc1cc(-c2cnc3n([C@@H]4COC[C@H]4OC)cccc2-3)nc2c(C(=O)NC3CC[C@@H]3OC)cnn12 (some centres unmarked) [Compound I-883] | < 0.1
CNc1cc(Nc2cccn([C@H]3[C@@H]4COC[C@@H]43)c2=O)nc2c(C(=O)N[C@H]3CC[C@H]3F)cnn12 [Compound I-204] | < 0.1
CNc1ccc(-c2cc(NC)n3ncc(C(=O)NC4CC[C@H]4O)c3n2)n2ccnc12 (some centres unmarked) [Compound I-484] | < 0.1
CNc1cc(Nc2cccn([C@H]3[C@@H]4COC[C@@H]43)c2=O)nc2c(C(=O)N[C@@H]3CC[C@@]3(C)OC)cnn12 [Compound I-410] | < 0.1
CNc1cc(Nc2cccn([C@H]3C[C@H](OC)C3)c2=O)nc2c(C(=O)N[C@@H]3CC[C@H]3F)cnn12 [Compound I-178] | < 0.1
CNc1cc(-c2cn([C@H]3CCC[C@H]3F)c3ncccc23)nc2c(C(=O)N[C@H]3COC[C@H]3O)cnn12 [Compound I-722] | < 0.1
CNc1ccc(-c2cc(NC)n3ncc(C(=O)N[C@H]4CC[C@H]4O)c3n2)n2ccnc12 [Compound I-485] | < 0.1
CNc1cc(-c2cn([C@H]3CCC4(C3)OCCO4)c3ncccc23)nc2c(C(=O)N[C@H]3CC[C@@H]3OC)cnn12 [Compound I-808] | < 0.1
CNc1cc(Nc2cccn([C@H]3C[C@H](F)C3)c2=O)nc2c(C(=O)N[C@H]3CC[C@H](O)C3)cnn12 [Compound I-436] | < 0.1
CNc1cc(-c2cnc3n([C@H]4COC[C@@H]4O)cccc2-3)nc2c(C(=O)N[C@H]3CC[C@@H]3F)cnn12 [Compound I-828] | < 0.1
CNc1cc(-c2cn(C3CCCC3)c3ncccc23)nc2c(C(=O)N[C@H]3CCC3(F)F)cnn12 [Compound I-685] | < 0.1
CNc1cc(-c2cn([C@H]3COC[C@@H]3OC)c3ccccc23)nc2c(C(=O)NC3CC[C@@H]3OC)cnn12 (some centres unmarked) [Compound I-741] | < 0.1
CNc1cc(Nc2cccn([C@H]3C[C@@H](OC)C3)c2=O)nc2c(C(=O)NC3CCC3(F)F)cnn12 (some centres unmarked) [Compound I-295] | < 0.1
CNc1cc(-c2cnc3n(CCCN4CCOCC4)cccc2-3)nc2c(C(=O)N[C@H]3CC[C@@H]3OC)cnn12 [Compound I-990] | < 0.1

same assay, conditions: 0.5 h, 1.7 ng/mL IL-12 for 30 minutes

SMILES | IC50 [µM]
CNc1cc(-c2cn([C@H]3COC[C@H]3F)c3ncccc23)nc2c(C(=O)NC3CC[C@@H]3OC)cnn12 (stereo partly drawn) [Compound I-624, 5-(1-((3S,4S)-4-Fluorotetrahydrofuran-3-yl)-1H-pyrrolo[2,3-b]pyridin-3-yl)-N-((trans-1,2)-2-methoxycyclobutyl)-7-(methylamino)pyrazolo[1,5-a]pyrimidine-3-carboxamide] | < 0.1
CNc1cc(Nc2cccn([C@H]3CCC[C@@H](C#N)C3)c2=O)nc2c(C(=O)NC3CC[C@@H]3OC)cnn12 (stereo partly drawn) [Compound I-114, 5-((1-((1S,3R)-3-Cyanocyclohexyl)-2-oxo-1,2-dihydropyridin-3-yl)amino)-N-((trans-1,2)-2-methoxycyclobutyl)-7-(methylamino)pyrazolo[1,5-a]pyrimidine-3-carboxamide] | < 0.1
CNc1cc(Nc2cccn([C@H]3C[C@@H]3F)c2=O)nc2c(C(=O)NC3CC[C@@H]3F)cnn12 (stereo partly drawn) [Compound I-148, N-((trans-1,2)-2-Fluorocyclobutyl)-5-((1-((1S,2S)-2-fluorocyclopropyl)-2-oxo-1,2-dihydropyridin-3-yl)amino)-7-(methylamino)pyrazolo[1,5-a]pyrimidine-3-carboxamide] | < 0.1
CNc1cc(Nc2cccn([C@H]3C[C@@H]3F)c2=O)nc2c(C(=O)N[C@H]3CC[C@H]3O)cnn12 [Compound I-12, 5-((1-((1S,2S)-2-Fluorocyclopropyl)-2-oxo-1,2-dihydropyridin-3-yl)amino)-N-((1S,2R)-2-hydroxycyclobutyl)-7-(methylamino)pyrazolo[1,5-a]pyrimidine-3-carboxamide] | < 0.1
